These results are taken from ChEMBL document CHEMBL1155745, “Constituents of the root bark of Severinia buxifolia collected in Hainan” (2001).

≈ marks a conversion by molar mass, not a printed value. Calls of active or inactive are those of the source. The calls are words filed in the database; no cut-off is given here.

One experiment relates to COLO 205. In words: Cytotoxicity against human COLO205 cells. The experiment is classed as functional. To be noted: for EC50: read-out: ED50 (the source's name).
The test system of the next experiment is Hep 3B2. In words: (§1) Cytotoxicity against human Hep3B cells. The class given is functional.
The subject of the next experiment is KB. In words: Cytotoxicity against human KB cells. The experiment is classed as functional. To be noted: for EC50: read-out: ED50 (the source's name).
Experiment [1] in a line: as §1. The class given is functional, Hep 3B2. The conditions noted are these: read-out: ED50 (the source's name).

Take `CC(C)=CCc1c2c(c3[nH]c4ccccc4c(=O)c3c1O)C=CC(C)(C)O2` [SEVERIFOLINE]: the ED50 result in the experiment on COLO 205 and with Hep 3B2 was “inactive” in each case. In the experiment with KB, the EC50 came to 0.09 µg/mL (≈ 0.249 µM).

In the case of `COc1c(/C=C/C(C)C)c(O)c2c(=O)c3cccc(O)c3[nH]c2c1CC=C(C)C`, the EC50 with COLO 205 was determined as 1.2 µg/mL (≈ 3.05 µM). Besides, the ED50 entry with Hep 3B2 and with KB was “inactive” throughout.

Regarding `COc1c(O)cc(O)c2c(=O)c3cccc(O)c3n(C)c12` [CITRUSININE-II], the ED50 result in the experiment on COLO 205 and in the experiment on Hep 3B2 was “inactive” each time. Also, in the experiment with KB, the EC50 came to 0.82 µg/mL (≈ 2.85 µM).

`COc1c(O)ccc2c(=O)c3c(O)cc(O)c(OC)c3n(C)c12`: the ED50 entry in the experiment on COLO 205 was “inactive”. For the same compound, the EC50 in experiment [1] amounted to 5.3 µg/mL (≈ 16.7 µM); in the experiment with KB it was 0.22 µg/mL (≈ 0.693 µM).

On to `CC(C)=CCc1c2c(c(O)c3c(=O)c4ccccc4[nH]c13)C=CC(C)(C)O2`, for which the EC50 in the experiment with COLO 205 is 0.58 µg/mL (≈ 1.6 µM). Moreover, the ED50 entry in the experiment with Hep 3B2 and in the experiment with KB was “inactive” throughout.

With `COc1cc(O)c2c(=O)c3cccc(O)c3n(C)c2c1OC` [CITRUSININE-I], the figures for the EC50 (in the experiment on COLO 205; in experiment [1]; with KB) were 6.3 µg/mL (≈ 20.9 µM), 6.6 µg/mL (≈ 21.9 µM) and 0.09 µg/mL (≈ 0.299 µM), respectively.
